# From patent publication US20220169632A1, “METHODS AND MATERIALS FOR INCREASING OR MAINTAINING NICOTINAMIDE MONONUCLEOTIDE ADENYLYL TRANSFERASE-2 (NMNAT2) POLYPEPTIDE LEVELS” (University of Pittsburgh - Of the Commonwealth System of …, priority 2019, published 2022)
# Tested on: NMNAT2
# Assay: NMNAT2-Hibit nano-luciferase activity in transfected U87MG cells, 25 μM, 24 hours
# Format: cell-based
# Conditions: NMNAT2-Hibit luc plasmid, 24 hours (Table B)
# Method: Selected compounds were tested in vitro. Briefly, U87MG cells were transfected with NMNAT2-Hibit luc plasmid. Cells were treated with a test compound at 25 μM for 24 hours. Cells were then collected and assayed for nano-luciferase activity.
row,Structure (SMILES),B: compound efficacy (IC50) for NMNAT2 activation; increase in NMNAT2 luciferase activity
1,O=C(NCc1noc2ccccc12)Nc1cccc(Cl)c1 [Compound 181001],+ (“+” <20% increase in NMNAT2 luciferase activity.)
2,O=C(NCc1noc2ccccc12)Nc1cccc(C(F)(F)F)c1 [Compound 181002],+ (“+” <20% increase in NMNAT2 luciferase activity.)
3,Cc1ccc(NC(=O)NCc2noc3ccccc23)c(Br)c1 [Compound 181003],+ (“+” <20% increase in NMNAT2 luciferase activity.)
4,Cc1ccc(NC(=O)NCc2noc3ccccc23)cc1F [Compound 181004],+ (“+” <20% increase in NMNAT2 luciferase activity.)
5,O=C(NCc1noc2ccccc12)Nc1ccc(F)c(Cl)c1 [Compound 181005],+ (“+” <20% increase in NMNAT2 luciferase activity.)
6,COc1ccc(NC(=O)NCc2noc3ccccc23)cc1Cl [Compound 181006],+ (“+” <20% increase in NMNAT2 luciferase activity.)
7,Cc1cc(Br)ccc1NC(=O)NCc1noc2ccccc12 [Compound 181007],+ (“+” <20% increase in NMNAT2 luciferase activity.)
8,COc1ccccc1CNC(=O)NCc1noc2ccccc12 [Compound 181008],+ (“+” <20% increase in NMNAT2 luciferase activity.)
9,CCc1ccc(NC(=O)NCc2noc3ccccc23)cc1 [Compound 181009],+ (“+” <20% increase in NMNAT2 luciferase activity.)
10,CC(C)c1ccc(NC(=O)NCc2noc3ccccc23)cc1 [Compound 181010],+ (“+” <20% increase in NMNAT2 luciferase activity.)
11,Cc1ccc(Cl)cc1N(C)C(=O)NCc1noc2ccccc12 [Compound 181011],+ (“+” <20% increase in NMNAT2 luciferase activity.)
12,Cc1ccccc1N(C)C(=O)NCc1noc2ccccc12 [Compound 181012],+ (“+” <20% increase in NMNAT2 luciferase activity.)
13,CN(C(=O)NCc1noc2ccccc12)c1cccc(Cl)c1 [Compound 181013],+ (“+” <20% increase in NMNAT2 luciferase activity.)
14,Cc1ccc(N(C)C(=O)NCc2noc3ccccc23)cc1C [Compound 181014],+ (“+” <20% increase in NMNAT2 luciferase activity.)

# Tested on: NMNAT2
# Assay: NMNAT2-Hibit nano-luciferase activity in stably transfected U87MG cells, various concentrations, 24 hours
# Format: cell-based
# Conditions: U87MG cells stably transfected with NMNAT2-Hibit luc plasmid
# Method: Selected compounds were tested in vitro. U87MG cells were stably transfected with NMNAT2-Hibit luc plasmid. Cells were treated with a test compound at various concentrations for 24 hours. Cells were then collected and assayed for nano-luciferase activity.
row,Structure (SMILES),E: compound efficacy for NMNAT2 activation (concentration giving >25% increase in NMNAT2 luciferase activity)
1,COc1ccccc1CNC(=O)C1CCCc2c1c1ccccc1n2Cc1cccc(F)c1 (centres unmarked) [BC20374],+ (“+” >25% increase in NMNAT2 luciferase activity at >25 μM.)
2,COc1cccc(CNC(=O)C2CCCc3c2c2ccccc2n3Cc2cccc(F)c2)c1 (centres unmarked) [BC20375],+ (“+” >25% increase in NMNAT2 luciferase activity at >25 μM.)
3,O=C(c1ccco1)N1CCN(C(=O)C2CCCc3c2c2ccccc2n3Cc2cccc(F)c2)CC1 (centres unmarked) [BC20376],+ (“+” >25% increase in NMNAT2 luciferase activity at >25 μM.)
4,CC(Cc1ccco1)NC(=O)C1CCCc2c1c1ccccc1n2Cc1cccc(F)c1 (centres unmarked) [BC20377],+ (“+” >25% increase in NMNAT2 luciferase activity at >25 μM.)
5,O=C(NCCc1ccccc1)C1CCCc2c1c1ccccc1n2Cc1cccc(F)c1 (centres unmarked) [BC20378],++ (“++” >25% increase in NMNAT2 luciferase activity at >1 μM ≤25 μM.)
6,O=C(NCc1cccnc1)C1CCCc2c1c1ccccc1n2Cc1cccc(F)c1 (centres unmarked) [BC20379],++ (“++” >25% increase in NMNAT2 luciferase activity at >1 μM ≤25 μM.)
7,O=C(NCc1ccncc1)C1CCCc2c1c1ccccc1n2Cc1cccc(F)c1 (centres unmarked) [BC20380],+ (“+” >25% increase in NMNAT2 luciferase activity at >25 μM.)
8,CCCCN(CC)Cc1ccc(CNC(=O)C2CCCc3c2c2ccccc2n3Cc2cccc(F)c2)o1 (centres unmarked) [BC20381],++ (“++” >25% increase in NMNAT2 luciferase activity at >1 μM ≤25 μM.)
9,O=C(C1CCCc2c1c1ccccc1n2Cc1cccc(F)c1)N(CCCN1CCOCC1)Cc1ccco1 (centres unmarked) [BC20382],++ (“++” >25% increase in NMNAT2 luciferase activity at >1 μM ≤25 μM.)
10,Cc1ccc(Cn2c3c(c4ccccc42)C(C(=O)NCc2ccco2)CCC3)cc1 (centres unmarked) [BC20383],+ (“+” >25% increase in NMNAT2 luciferase activity at >25 μM.)
11,Cc1ccc(Cn2c3c(c4ccccc42)C(C(=O)NCC2CCCO2)CCC3)cc1 (centres unmarked) [BC20384],+ (“+” >25% increase in NMNAT2 luciferase activity at >25 μM.)
12,Cc1ccc(Cn2c3c(c4ccccc42)C(C(=O)NCc2ccccc2F)CCC3)cc1 (centres unmarked) [BC20385],++ (“++” >25% increase in NMNAT2 luciferase activity at >1 μM ≤25 μM.)
13,Cc1ccc(Cn2c3c(c4ccccc42)C(C(=O)NCc2cccc(C)c2)CCC3)cc1 (centres unmarked) [BC20386],++ (“++” >25% increase in NMNAT2 luciferase activity at >1 μM ≤25 μM.)
14,COc1cccc(CNC(=O)C2CCCc3c2c2ccccc2n3Cc2ccc(C)cc2)c1 (centres unmarked) [BC20387],+ (“+” >25% increase in NMNAT2 luciferase activity at >25 μM.)
15,Cc1ccc(Cn2c3c(c4ccccc42)C(C(=O)NCCc2ccccc2)CCC3)cc1 (centres unmarked) [BC20388],+ (“+” >25% increase in NMNAT2 luciferase activity at >25 μM.)
16,Cc1ccc(Cn2c3c(c4ccccc42)C(C(=O)NCc2cccnc2)CCC3)cc1 (centres unmarked) [BC20389],++ (“++” >25% increase in NMNAT2 luciferase activity at >1 μM ≤25 μM.)
17,Cc1ccc(Cn2c3c(c4ccccc42)C(C(=O)NCc2ccncc2)CCC3)cc1 (centres unmarked) [BC20390],+ (“+” >25% increase in NMNAT2 luciferase activity at >25 μM.)

row,Structure (SMILES),E: compound efficacy for NMNAT2 activation (concentration giving >25% increase in NMNAT2 luciferase activity)
1,CCCCN(CC)Cc1ccc(CNC(=O)C2CCCc3c2c2ccccc2n3Cc2ccc(C)cc2)o1 (centres unmarked) [BC20391],++ (“++” >25% increase in NMNAT2 luciferase activity at >1 μM ≤25 μM.)
2,Cc1ccc(C)c(Cn2c(C(F)F)c(CCC(=O)NCC3CCCO3)c3ccccc32)c1 (centres unmarked) [BC20392],+ (“+” >25% increase in NMNAT2 luciferase activity at >25 μM.)
3,Cc1ccc(C)c(Cn2c(C(F)F)c(CCC(=O)NCc3ccccc3F)c3ccccc32)c1 [BC20393],++ (“++” >25% increase in NMNAT2 luciferase activity at >1 μM ≤25 μM.)
4,Cc1ccc(C)c(Cn2c(C(F)F)c(CCC(=O)NCc3cccc(F)c3)c3ccccc32)c1 [BC20394],+ (“+” >25% increase in NMNAT2 luciferase activity at >25 μM.)
5,Cc1ccc(C)c(Cn2c(C(F)F)c(CCC(=O)NCc3ccccc3C)c3ccccc32)c1 [BC20395],++ (“++” >25% increase in NMNAT2 luciferase activity at >1 μM ≤25 μM.)
6,Cc1cccc(CNC(=O)CCc2c(C(F)F)n(Cc3cc(C)ccc3C)c3ccccc23)c1 [BC20396],++ (“++” >25% increase in NMNAT2 luciferase activity at >1 μM ≤25 μM.)
7,COc1ccccc1CNC(=O)CCc1c(C(F)F)n(Cc2cc(C)ccc2C)c2ccccc12 [BC20397],+ (“+” >25% increase in NMNAT2 luciferase activity at >25 μM.)
8,COc1cccc(CNC(=O)CCc2c(C(F)F)n(Cc3cc(C)ccc3C)c3ccccc23)c1 [BC20398],++ (“++” >25% increase in NMNAT2 luciferase activity at >1 μM ≤25 μM.)
9,Cc1ccc(C)c(Cn2c(C(F)F)c(CCC(=O)N(CCCN3CCOCC3)Cc3ccco3)c3ccccc32)c1 [BC20399],++ (“++” >25% increase in NMNAT2 luciferase activity at >1 μM ≤25 μM.)
10,Cc1ccc(C)c(Cn2c(C(F)F)c(CCC(=O)N3CCN(C(=O)c4ccco4)CC3)c3ccccc32)c1 [BC20400],++ (“++” >25% increase in NMNAT2 luciferase activity at >1 μM ≤25 μM.)
11,Cc1ccc(C)c(Cn2c(C(F)F)c(CCC(=O)NC(C)Cc3ccco3)c3ccccc32)c1 (centres unmarked) [BC20401],++ (“++” >25% increase in NMNAT2 luciferase activity at >1 μM ≤25 μM.)
12,Cc1ccc(C)c(Cn2c(C(F)F)c(CCC(=O)NCCc3ccccc3)c3ccccc32)c1 [BC20402],++ (“++” >25% increase in NMNAT2 luciferase activity at >1 μM ≤25 μM.)
13,Cc1ccc(C)c(Cn2c(C(F)F)c(CCC(=O)NCc3cccnc3)c3ccccc32)c1 [BC20403],+ (“+” >25% increase in NMNAT2 luciferase activity at >25 μM.)
14,Cc1ccc(C)c(Cn2c(C(F)F)c(CCC(=O)NCc3ccncc3)c3ccccc32)c1 [BC20404],++ (“++” >25% increase in NMNAT2 luciferase activity at >1 μM ≤25 μM.)
15,Cc1ccc(C)c(Cn2c(C(F)F)c(C3CC(=O)Nc4cccc(C)c43)c3ccccc32)c1 (centres unmarked) [BC20405],++ (“++” >25% increase in NMNAT2 luciferase activity at >1 μM ≤25 μM.)
16,CCCCN(CC)Cc1ccc(CNC(=O)CCc2c(C(F)F)n(Cc3cc(C)ccc3C)c3ccccc23)o1 [BC20406],+++ (“+++” >25% increase in NMNAT2 luciferase activity at ≤1 μM.)
